Patent US9586978B2, “Anti-viral compounds” (AbbVie Inc., priority 2009, dated 2017)
pEC50: −log10 of the molar value. Read-outs that look alike come from different tables or passages of the source.

Tests used:
HCV genotype 1a replicon = HCV genotype 1a replicon assay; assay type: cell-based, Hepatitis C virus; settings: Hepatitis C virus
Description: (§1) [drawing 14] employs a biphenyl linker between the imidazole moieties. See WO2008021927(BMS). The EC50 values of BMS-790052 against different HCV genotypes were shown by Nettles et al., “BMS-790052 is a First-in-class Potent Hepatitis C Virus (HCV) NS5A Inhibitor for Patients with Chronic HCV Infection: Results from a Proof-of-concept Study”, 59th Annual Meeting of the American Association for the Study of Liver Diseases (Oct. 31-Nov. 1, 2008, San Francisco, Calif.; www.natap.org/2008/AASLD/AASLD_06.htm). […] See also Gao et al., NATURE 465:96-100 (2010). The compounds in Table 1 use different linkers between the imidazole moieties. Table 1 depicts the EC50 values of these compounds when tested using respective replicon assays in the presence of 5% (v/v) fetal bovine serum (FBS).
(§2) Table 2 compares compounds containing unsubstituted benzimidazole to those containing halo-substituted benzimidazole. Anti-viral activities were assessed using wild-type replicons (e.g., 1b WT or 1a WT) as well as replicons containing specific NS5A mutations (e.g., 1b L28T, 1b Y93H, 1a L31V, 1a Y93C, 1a M28V, or 1a Q30E) in the absence of FBS.
(§3) Table 3 compares compounds with different linkers between the benzimidazole moieties. Anti-viral activities were determined using 1a and 1b replicon assays. “HP” refers to human plasma. […] As compared to the phenyl linker

HCV genotype 1b replicon = HCV genotype 1b replicon assay; assay type: cell-based, Hepatitis C virus; settings: Hepatitis C virus
Description: as §1, §2, §3

[1] = test system: HCV 1b replicon containing NS5A mutation L28T; test: HCV 1b L28T replicon assay; assay type: cell-based; settings: Hepatitis C virus, read-out: EC50 (nM) 1b L28T
Method: as §2

[2] = test system: HCV 1b replicon containing NS5A mutation Y93H; test: HCV 1b Y93H replicon assay; assay type: cell-based, Hepatitis C virus; settings: Hepatitis C virus, read-out: EC50 (nM) 1b Y93H
Method: as §2

[3] = test system: HCV 1a replicon containing NS5A mutation L31V; test: HCV 1a L31V replicon assay; assay type: cell-based, Hepatitis C virus; settings: for EC50: Hepatitis C virus, read-out: EC50 (nM) 1a L31V
Method: as §2

[4] = test system: HCV 1a replicon containing NS5A mutation Y93C; test: HCV 1a Y93C replicon assay; assay type: cell-based; settings: Hepatitis C virus, read-out: EC50 (nM) 1a Y93C
Method: as §2

[5] = test system: HCV 1a replicon containing NS5A mutation M28V; test: HCV 1a M28V replicon assay; assay type: cell-based; settings: Hepatitis C virus, read-out: EC50 (nM) 1a M28V
Method: as §2

[6] = test system: HCV 1a replicon containing NS5A mutation Q30E; test: HCV 1a Q30E replicon assay; assay type: cell-based; settings: Hepatitis C virus, read-out: EC50 (nM) 1a Q30E
Method: as §2

HCV 1b-Con1 replicon = HCV 1b-Con1 replicon assay in the presence of 5% FBS (luciferase reporter); assay type: cell-based; settings: Hepatitis C virus
HCV genotype 2a replicon = HCV genotype 2a replicon assay; assay type: cell-based, Hepatitis C virus; settings: Hepatitis C virus, absence of human plasma; Table 5; read-out: EC50 (nM, in the absence of HP) 2a
Description: as §1

HCV genotype 2b replicon = HCV genotype 2b replicon assay; assay type: cell-based, Hepatitis C virus; settings: Hepatitis C virus, absence of human plasma; Table 5; read-out: EC50 (nM, in the absence of HP) 2b
Description: as §1

HCV genotype 3a replicon = HCV genotype 3a replicon assay; assay type: cell-based, Hepatitis C virus; settings: Hepatitis C virus, read-out: EC50 (nM, in the absence of HP) 3a, absence of human plasma; Table 5
Description: as §1

HCV genotype 4a replicon = HCV genotype 4a replicon assay; assay type: cell-based, Hepatitis C virus; settings: Hepatitis C virus, absence of human plasma; Table 5; read-out: EC50 (nM, in the absence of HP) 4a
Description: as §1

[7] = test system: HCV 2a, 2b, 3a and 4a replicon; test: HCV 2a, 2b, 3a and 4a replicon assays in the absence of human plasma; assay type: cell-based; settings: 3a and 4a replicons
Method: The inhibitory effects of the compounds of the invention on HCV replication can be determined by measuring activity of the luciferase reporter gene. For example, replicon-containing cells can be seeded into 96 well plates at a density of 5000 cells per well in 100 μl DMEM containing 5% FBS. The following day compounds can be diluted in dimethyl sulfoxide (DMSO) to generate a 200× stock in a series of eight half-log dilutions. The dilution series can then be further diluted 100-fold in the medium containing 5% FBS. Medium with the inhibitor is added to the overnight cell culture plates already containing 100 μl of DMEM with 5% FBS. In assays measuring inhibitory activity in the presence of human plasma, the medium from the overnight cell culture plates can be replaced with DMEM containing 40% human plasma and 5% FBS. The cells can be incubated for three days in the tissue culture incubators after which time 30 μl of Passive Lysis buffer (Promega) can be added to each well, and then the plates are incubated for 15 minutes with rocking to lyse the cells. Luciferin solution (100 μl, Promega) can be added to each well, and luciferase activity can be measured with a Victor II luminometer (Perkin-Elmer). The percent inhibition of HCV RNA replication can be calculated for each compound concentration and the EC50 value can be calculated using nonlinear regression curve fitting to the 4-parameter logistic equation and GraphPad Prism 4 software.

[8] = wild-type replicon, in the absence of FBS, read-out: EC50 (nM) 1a WT
[9] = wild-type replicon, in the absence of FBS, read-out: EC50 (nM) 1b WT
[10] = 40% human plasma, Table 5, read-out: EC50 (nM, in the presence of 40% HP) 1a
[11] = 40% human plasma, Table 5, read-out: EC50 (nM, in the presence of 40% HP) 1b

SMILES | EC50 (HCV genotype 1a replicon; [8]) | EC50 (HCV genotype 1b replicon; [9]) | EC50 [1] | EC50 [2] | EC50 [3] | EC50 [4] | EC50 [5] | EC50 [6] | pEC50 (HCV 1b-Con1 replicon) | further results
COC(=O)NC(C(=O)N1CCCC1c1nc2cc(-c3ccc(-c4ccc5[nH]c([C@@H]6CCCN6C(=O)[C@@H](NC(=O)OC)C(C)C)nc5c4)cc3)ccc2[nH]1)C(C)C (some centres unmarked) | 0.09 nM | 0.01 nM | 2.7 nM | 0.9 nM | 36 nM | 40 nM | 1 nM | 40 nM | – | –
COC(=O)N[C@H](C(=O)N1CCC[C@H]1c1nc2cc(F)c(-c3ccc(-c4cc5[nH]c([C@@H]6CCCN6C(=O)[C@@H](NC(=O)OC)C(C)C)nc5cc4F)cc3)cc2[nH]1)C(C)C | 0.14 nM | 0.003 nM | 1.8 nM | 0.5 nM | 109 nM | 26 nM | 2.4 nM | 119 nM | – | –
COC(=O)N[C@H](C(=O)N1CCC[C@H]1c1nc2c(F)cc(-c3ccc(-c4cc(F)c5nc([C@@H]6CCCN6C(=O)[C@@H](NC(=O)OC)C(C)C)[nH]c5c4)cc3)cc2[nH]1)C(C)C | 0.26 nM | 0.004 nM | 4.3 nM | 2.4 nM | 5.5 nM | 34 nM | 1.8 nM | 59 nM | – | –
COC(=O)N[C@H](C(=O)N1CCC[C@H]1c1nc2cc(F)c(-c3ccc(-c4c(F)cc5nc([C@@H]6CCCN6C(=O)[C@@H](NC(=O)OC)C(C)C)[nH]c5c4F)cc3)c(F)c2[nH]1)C(C)C | 0.28 nM | 0.005 nM | > 10 nM | 5.7 nM | 33 nM | 103 nM | 11.6 nM | 306 nM | – | –
COC(=O)N[C@H](C(=O)N1CCC[C@H]1c1nc2ccc(-c3ccc(-c4ccc5nc([C@@H]6CCCN6C(=O)[C@@H](NC(=O)OC)C(C)C)[nH]c5c4F)cc3)c(F)c2[nH]1)C(C)C | 0.1 nM | 0.007 nM | > 10 nM | 3.6 nM | 80 nM | 141 nM | 5.8 nM | 52 nM | – | –
COC(=O)N[C@H](C(=O)N1CCCC1c1nc2c(F)cc(-c3ccc(-c4cc(F)c5nc([C@@H]6CCCN6C(=O)[C@@H](NC(=O)OC)C(C)C)[nH]c5c4)cc3)cc2[nH]1)C(C)C (some centres unmarked) | – | – | – | – | – | – | – | – | – | activity against HCV variants containing NS5A mutations (e.g., 1a L31V) ([3]; compared with unsubstituted benzimidazole reference compound of Table 2): better activity
COC(=O)N[C@H](C(=O)N1CCC[C@H]1c1nc2cc(C3CC[C@H](c4cc5nc([C@@H]6CCCN6C(=O)[C@@H](NC(=O)OC)C(C)C)[nH]c5cc4F)N3c3cc(F)c(N4CC(C)CC(C)C4)c(F)c3)c(F)cc2[nH]1)C(C)C (stereo partly drawn) [Example 2.16, methyl{(2S)-1-[(2S)-2-{5-[(5R)-1-[4-(3,5-dimethylpiperidin-1-yl)-3,5-difluorophenyl]-5-{6-fluoro-2-[(2S)-1-{(2S)-2-[(methoxycarbonyl)amino]-3-methylbutanoyl}pyrrolidin-2-yl]-1H-benzimidazol-5-yl}pyrrolidin-2-yl]-6-fluoro-1H-benzimidazol-2-yl}pyrrolidin-1-yl]-3-methyl-1-oxobutan-2-yl}carbamate] | – | – | – | – | – | – | – | – | > 10.00 | –
CC(C)(C)OC(=O)NCC(=O)N1CCC[C@H]1c1nc2cc([C@@H]3CC[C@@H](c4ccc5[nH]c([C@@H]6CCCN6C(=O)CNC(=O)OC(C)(C)C)nc5c4)N3c3ccc(N4CCCCC4)c(F)c3)ccc2[nH]1 [Example 3.14, tert-butyl {2-[(2S)-2-(5-{(2S,5S)-5-{2-[(2S)-1-{[(tert-butoxycarbonyl)amino]acetyl}pyrrolidin-2-yl]-1H-benzimidazol-5-yl}-1-[3-fluoro-4-(piperidin-1-yl)phenyl]pyrrolidin-2-yl}-1H-benzimidazol-2-yl)pyrrolidin-1-yl]-2-oxoethyl}carbamate] | – | – | – | – | – | – | – | – | < 5.00 | –
COC(=O)N[C@H](C(=O)N1CCC[C@H]1c1nc2cc([C@H]3CC[C@H](c4ccc5[nH]c([C@@H]6CCCN6C(=O)[C@@H](NC(=O)OC)C(C)C)nc5c4)N3c3ccc(N4CCC(c5ccccc5)CC4)c(F)c3)ccc2[nH]1)C(C)C [Example 3.20, methyl{(2S)-1-[(2S)-2-{5-[(2R,5R)-1-[3-fluoro-4-(4-phenylpiperidin-1-yl)phenyl]-5-{2-[(2S)-1-{(2S)-2-[(methoxycarbonyl)amino]-3-methylbutanoyl}pyrrolidin-2-yl]-1H-benzimidazol-5-yl}pyrrolidin-2-yl]-1H-benzimidazol-2-yl}pyrrolidin-1-yl]-3-methyl-1-oxobutan-2-yl}carbamate] | – | – | – | – | – | – | – | – | – | EC50 (HCV genotype 1a replicon; [10]): 0.5 nM; EC50 (HCV genotype 1b replicon; [11]): 0.6 nM; EC50 (HCV genotype 2a replicon): ≤ 0.05 nM; EC50 (HCV genotype 2b replicon): ≤ 0.05 nM; EC50 (HCV genotype 3a replicon): ≤ 0.05 nM; EC50 (HCV genotype 4a replicon): ≤ 0.05 nM; EC50 values, fold less than those of Example 4.25 ([7]; absence of HP, versus Example 4.25): at least 15 fold
COC(=O)N[C@H](C(=O)N1C(c2nc3cc([C@H]4CCC(c5ccc6[nH]c([C@@H]7C[C@@H]8CCC[C@@H]8N7C(=O)[C@@H](NC(=O)OC)C(C)C)nc6c5)N4c4cc(F)c(N5CCCCC5)c(F)c4)ccc3[nH]2)C[C@@H]2CCC[C@@H]21)C(C)C (some centres unmarked) [Example 4.18] | – | – | – | – | – | – | – | – | > 10.00 | –
COC(=O)N[C@H](C(=O)N1C(c2nc3cc([C@H]4CC[C@H](c5ccc6[nH]c([C@@H]7C[C@@H]8CCC[C@@H]8N7C(=O)[C@@H](NC(=O)OC)C(C)C)nc6c5)N4c4ccc(C(C)(C)C)cc4)ccc3[nH]2)C[C@@H]2CCC[C@@H]21)C(C)C (stereo partly drawn) [Example 4.19, methyl{(2S)-1-[(2S,3aS,6aS)-2-{5-[(2R,5R)-1-(4-tert-butylphenyl)-5-{2-[(3aS,6aS)-1-{(2S)-2-[(methoxycarbonyl)amino]-3-methylbutanoyl}octahydrocyclopenta[b]pyrrol-2-yl]-1H-benzimidazol-5-yl}pyrrolidin-2-yl]-1H-benzimidazol-2-yl}hexahydrocyclopenta[b]pyrrol-1(2H)-yl]-3-methyl-1-oxobutan-2-yl}carbamate] | – | – | – | – | – | – | – | – | > 10.00 | –
COC(=O)N[C@H](C(=O)N1CCC[C@H]1c1nc2cc([C@H]3CC[C@H](c4ccc5[nH]c([C@@H]6CCCN6C(=O)[C@@H](NC(=O)OC)C(C)C)nc5c4)N3c3ccc(N4CCC(c5ccccc5)CC4)cc3)ccc2[nH]1)C(C)C [Example 4.25] | – | – | – | – | – | – | – | – | – | EC50 (HCV genotype 1a replicon; [10]): 1.5 nM; EC50 (HCV genotype 1b replicon; [11]): 1.5 nM; EC50 (HCV genotype 2a replicon): 0.5 nM; EC50 (HCV genotype 2b replicon): 0.5 nM; EC50 (HCV genotype 3a replicon): 0.5 nM; EC50 (HCV genotype 4a replicon): 0.2 nM; pEC50 ([7]; Hepatitis C virus, absence of human plasma): 9.30 to 9.70
